Test results taken from patent US8673910B2, “Proteasome inhibitors for selectively inducing apoptosis in cancer cells” (H. Lee Moffitt Cancer Center and Research Institute, priority 2008, dated 2014).
Where “and” joins values, the source holds several entries; their conditions need not be identical. Equal entries are not always repeated. Where two headings read alike, the source gives them in different places.

What was measured:
[1] = target: T1, hepatic CT-L, T-L, and PGPH activities (Mus musculus, UniProt O09061+O55234+P70195+Q60692); assay: Proteasome activities in livers of tumor-bearing mice after in vivo treatment; parameters: species or system nude mice; conditions: livers extracted 2 hours after last i.p. injection (1 mpk)
T1 construct: from tissue; host or cells: liver of tumour-bearing nude mice (Charles River)
Experimental: (§3) To determine proteasome activity in whole cell extracts from cultured cells (5 μg) or tumor and liver tissue extracts (30 μg) from nude mice, the same assay was used except that the buffer was changed to 20 mM HEPES, 0.5 mM EDTA, pH 8.0.
(§4) Whole cell extracts were prepared as follows: Cells were harvested, washed with PBS twice, and homogenized in a lysis buffer (50 mM Tris-HCl, pH 8.0, 5 mM EDTA, 150 mM NaCl, 0.5% NP-40) for 30 min at 4° C. Cell extracts from tumors and livers of nude mice were prepared in 50 mM HEPES, 0.5 mM EDTA, pH 8.0. Cell lysates were centrifuged at 12,000 g for 15 min, and the supernatants were collected as whole cell extracts.
(§5) Nude mice (Charles River Laboratories, Wilmington, Mass.) were maintained and treated in accordance with the Institutional Animal Care and Use Committee procedures and guidelines. […] Exponentially growing MCF-7 and A549 cells were harvested via trypsinization, pelleted at 300 g for 5 minutes, resuspended in sterile PBS (Invitrogen) at 10^7 cells per 100 μl, and injected into each flank of mice. The tumor xenografts were monitored with an electronic caliper every other day for 16 days. Tumor volume was calculated using the formula V=W^2L, where width is the largest diameter and length is the smallest diameter. When the tumors reached ˜200 mm^3, the animals were randomized and treatment schedules were implemented. […]

[2] = tested on: T80-Hras ovarian cancer cells; assay: MTT metabolism assay; format: cell-based; conditions: Homo sapiens, mean ± SD of 3 to 5 experiments, read-out: IC50 for cell viability measured by MTT assay
[3] = tested on: primary multiple myeloma cells isolated from patients' bone marrow; assay: Proliferation of primary multiple myeloma cells (Trypan blue); format: cell-based, human; conditions: primary MM cells, 24 h treatment, Table 5: one value per patient, mean over patients
Experimental: (§1) MM patients' bone marrow samples were collected from Liquid Tissue Bank facility. Freshly isolated bone marrow samples were fractionated by Ficoll-Paque (Pharmacia Biotech, Piscataway, N.J.) sedimentation. The mononuclear cellular layer was then resuspended in RPMI-1640 containing 10% heat-inactivated fetal bovine serum, 10 mM HEPES (pH 7.4), sodium pyruvate, L-glutamine, and 1% penicillin-streptomycin.
Adherent cells were harvested using trypsinization and pooled with suspension cells from media supernatant by pelleting at 300 g for 5 min at 4° C. The cells were then resuspended in an appropriate volume of media by pipetting gently up and down. Two 20 μl aliquots were removed and combined with an equal volume of 0.4% Trypan blue and allowed to mix for 1 minute. A 10 μl volume was loaded onto a hemacytometer and cells were scored as live or dead based on Trypan blue dye exclusion and the percentage of dead cell number to total cell number was calculated. To calculate the percentage of proliferation, the number of live cells in the treated samples was divided by the number of live cells in the untreated vehicle control.

[4] = target: T2, chymotrypsin-like (CT-L) activity of purified 20S rabbit proteasome (Oryctolagus cuniculus, UniProt G1T4Q9); assay: Proteolytic activity of purified 20S proteasome, fluorogenic substrate Suc-Leu-Leu-Val-Tyr-AMC; format: biochemical
T2 sequence (G1T4Q9 1-263): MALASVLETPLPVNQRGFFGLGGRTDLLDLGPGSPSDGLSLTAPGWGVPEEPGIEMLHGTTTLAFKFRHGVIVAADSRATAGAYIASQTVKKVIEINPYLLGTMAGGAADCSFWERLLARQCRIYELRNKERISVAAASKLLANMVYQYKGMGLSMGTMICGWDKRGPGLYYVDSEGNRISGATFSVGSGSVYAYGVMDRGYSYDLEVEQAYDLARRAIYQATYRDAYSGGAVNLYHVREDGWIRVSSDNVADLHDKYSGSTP
Experimental: After incubation, production of hydrolyzed 7-amido-4-methyl-coumarin (AMC) groups was measured using a WALLAC Victor^2 1420 Multilabel Counter with an excitation filter of 355 nm and an emission filter of 460 nm (Perkin Elmer Life Sciences, Turku, Finland).
The inhibitory activity of the compounds was calculated based on vehicle control). This technique monitors the hydrolytic release of a coumarin species from a synthetic peptide substrate.
The assay was conducted by using a fluorogenic peptide as substrate to test synthesized compounds for inhibitory activity against the chymotrypsin-like activity of the purified rabbit 20S proteasome. Briefly, 70 ng of purified 20S proteasome was incubated with 20 μM Suc-Leu-Leu-Val-Tyr-AMC for 1 hour at 37° C. in 100 μl of assay buffer (50 mM Tris-HCl, pH 7.6) with or without inhibitors. After incubation, production of hydrolyzed 7-amido-4-methyl-coumarin (AMC) was measured using a WALLAC Victor2 1420 Multilabel Counter with an excitation filter of 355 nm and an emission filter of 460 nm (Perkin Elmer Life Sciences, Turku, Finland). The inhibitory activity of the compounds was calculated based on vehicle control.

[5] = target: T3, tumor T-L activity (A549 tumors) (Homo sapiens, UniProt Q99436); assay: Proteasome activity in A549 tumor lysates after in vivo treatment; parameters: species or system nude mice; conditions: mouse, ip; A549 tumors extracted 2 hours after last i.p. injection (1 mpk), vs DMSO-treated controls
T3 construct: from tissue; host or cells: A549 human lung tumour xenografts grown in nude mice
Experimental: as §3, §4, §5

[6] = tested on: RPMI-8226 multiple myeloma cells; assay: MTT metabolism assay; format: cell-based; conditions: Homo sapiens, mean ± SD of 3 to 5 experiments, read-out: IC50 for cell viability measured by MTT assay
Experimental: (§2) Cells were plated in 96-well plates in 100 μl medium and allowed to attach overnight. […] Media was aspirated after 24 or 72 hours and replaced with 100 μl complete media containing 1 mg/ml MTT and incubated for three hours at 37° C. in 5% CO2 humidified incubator. Media was then aspirated and DMSO was added. Cells were incubated for 10 min at room temperature while shaking, and the absorbance was determined at 540 nm using a μQuant spectrophotometric plate reader (Bio-TEK, Winooski, Vt.).

[7] = tested on: HPDE6-C7-Kras (C7-Kras) pancreatic cancer cells; assay: MTT metabolism assay; format: cell-based; conditions: Homo sapiens, Pancreatic cancer cell, mean ± SD of 3 to 5 experiments, read-out: IC50 for cell viability measured by MTT assay
Experimental: as §2

[8] = tested on: DU-145 prostate cancer cells; assay: MTT metabolism assay; format: cell-based; conditions: Homo sapiens, read-out: IC50 for cell viability measured by MTT assay
Experimental: as §2

[9] = tested on: U266 multiple myeloma cells; assay: MTT metabolism assay; format: cell-based; conditions: Homo sapiens, U-266, mean ± SD of 3 to 5 experiments, read-out: IC50 for cell viability measured by MTT assay
Experimental: as §2

[10] = tested on: T80 ovarian epithelial cells; assay: MTT metabolism assay; format: cell-based; conditions: Homo sapiens, Epithelial cell, mean ± SD of 3 to 5 experiments, read-out: IC50 for cell viability measured by MTT assay
Experimental: as §2

[11] = tested on: HPDE6-C7 (C7) pancreatic epithelial cells; assay: MTT metabolism assay; format: cell-based; conditions: Homo sapiens, HPDE6c7, mean ± SD of 3 to 5 experiments, read-out: IC50 for cell viability measured by MTT assay
Experimental: as §2

[12] = tested on: LNCaP prostate cancer cells; assay: MTT metabolism assay; format: cell-based; conditions: Homo sapiens, mean ± SD of 3 to 5 experiments, read-out: IC50 for cell viability measured by MTT assay
Experimental: as §2

[13] = tested on: CaLu-1 lung cancer cells; assay: MTT metabolism assay; format: cell-based; conditions: Homo sapiens, mean ± SD of 3 to 5 experiments, read-out: IC50 for cell viability measured by MTT assay
Experimental: as §2

[14] = tested on: MCF-10A breast epithelial cells; assay: MTT metabolism assay; format: cell-based; conditions: Homo sapiens, mean ± SD of 3 to 5 experiments, read-out: IC50 for cell viability measured by MTT assay
Experimental: as §2

[15] = tested on: primary multiple myeloma cells isolated from patients' bone marrow; assay: Viability of primary multiple myeloma cells (MTT assay); format: cell-based, human
Experimental: as §1
Cells were plated in 96-well plates in 100 μl medium and allowed to attach overnight. […] […] Media was then aspirated and DMSO was added. Cells were incubated for 10 min at room temperature while shaking, and the absorbance was determined at 540 nm using a μQuant spectrophotometric plate reader (Bio-TEK, Winooski, Vt.).

[16] = tested on: A549 lung cancer xenografts; assay: Antitumor study of human tumor xenografts in nude mice (A549); format: in vivo; conditions: 1 mpk i.p. 2× weekly; for average tumor size of A549-derived xenografts: start at about 200 mm^3
Experimental: Nude mice (Charles River Laboratories, Wilmington, Mass.) were maintained and treated in accordance with the Institutional Animal Care and Use Committee procedures and guidelines. Seven days before inoculation with MCF-7 cells, the animals were fully anesthetized for subcutaneous implantation of estradiol pellets (0.25 mg per pellet, 60-day release; Innovative Research of America, Sarasota, Fla.) on the dorsal surface of mice. Exponentially growing MCF-7 and A549 cells were harvested via trypsinization, pelleted at 300 g for 5 minutes, resuspended in sterile PBS (Invitrogen) at 10^7 cells per 100 μl, and injected into each flank of mice. The tumor xenografts were monitored with an electronic caliper every other day for 16 days. Tumor volume was calculated using the formula V=W^2L, where width is the largest diameter and length is the smallest diameter. When the tumors reached ˜200 mm^3, the animals were randomized and treatment schedules were implemented. […] 2 hours after the last injections animals were sacrificed via CO2 inhalation, and then tumors and livers were harvested and snap frozen in liquid N2.

[17] = target: T4, tumor CT-L activity (A549 tumors) (Homo sapiens, UniProt P20618+P28074); assay: Proteasome activity in A549 tumor lysates after in vivo treatment; parameters: species or system nude mice; conditions: mouse, ip; A549 tumors extracted 2 hours after last i.p. injection (1 mpk), vs DMSO-treated controls
T4 construct: from tissue; host or cells: A549 human lung tumour xenografts grown in nude mice
Experimental: as §3, §4, §5

[18] = read-out: Proliferation 24 h (IC50 values)
[19] = read-out: Viability 24 h (IC50 values), primary MM cells, 24 h, Table 5: one value per patient, mean over patients

SMILES	effect on proteasome activities in livers of tumor-bearing mice [1]	IC50 ([2]; 24 h)	IC50 [3, 18]	inhibition at 1 mg/kg [5]	IC50 ([6]; RPMI-8226, 24 h)	IC50 ([6]; RPMI-8226, 72 h)	IC50 ([7]; 24 h)	IC50 ([7]; 72 h)	IC50 ([8]; DU-145, 24 h)	IC50 ([8]; DU-145, 72 h)	IC50 ([9]; U266, 24 h)	IC50 ([10]; T80, 24 h)	IC50 ([10]; T80, 72 h)	IC50 ([11]; C7, 24 h)	IC50 ([11]; C7, 72 h)	IC50 ([12]; 24 h)	IC50 ([12]; 72 h)	IC50 ([13]; CaLu-1, 24 h)	IC50 ([13]; CaLu-1, 72 h)	IC50 ([14]; 24 h)	also measured
CC(C)C[C@H](NC(=O)[C@H](Cc1ccccc1)NC(=O)c1cnccn1)B(O)O [Bortezomib, reference compound]	significantly inhibited hepatic CT-L, T-L, and PGPH activities	> 30000 nM	> 10 µM	0%	49 ± 25 nM	26 ± 3 nM	> 30000 nM	28 ± 6 nM	> 30000 nM	25 ± 2 nM	> 30000 nM	> 30000 nM	14 ± 1 nM	> 30000 nM	32 ± 1 nM	> 30000 nM	57 ± 4 nM	> 30000 nM	22 ± 2 nM	> 30000 nM	IC50 ([3]; Homo sapiens, Multiple myeloma cell, read-out: Proliferation 24 h (IC50 values, μM)): > 10 µM; difference in potency between bortezomib and PI-083 ([4]; CT-L inhibition): 100 fold; IC50 ([14]; 72 h): 150 ± 74 nM; IC50 ([15]; primary MM cells, 48 h, Table 5: one value per patient, b176: mean over patients, listed as bortezomib, read-out: Viability 48 h (IC50 values)): 140 ± 80 nM; IC50 [15, 19]: 190 nM and 280 nM; IC50 ([15]; read-out: Viability 72 h (IC50 values), primary MM cells, 72 h, Table 5: one value per patient, b176: mean over patients, listed as bortezomib): 46 ± 8 nM; average tumor size of A549-derived xenografts [16]: 864±207 mm^3; inhibition at 1 mg/kg [17]: 70%
O=C1C(Cl)=C(Nc2ccc(S(=O)(=O)Nc3ccccn3)cc2)C(=O)c2ccccc21 [PI-083, 4-(3-chloro-1,4-dioxo-1,4-dihydronaphthalen-2-ylamino)-N-(pyridin-2-yl)benzenesulfonamide]	did not inhibit liver proteasome activities	1500 ± 570 nM	6.6 µM and 1.3 µM and 2.2 µM and 2.6 µM and 1.7 µM and 2.8 µM and 10 µM and 5 µM and 2.9 µM	12%	7400 ± 380 nM	10000 ± 4000 nM	2400 ± 230 nM	1900 ± 200 nM	8600 ± 630 nM	5000 ± 720 nM	23000 ± 1700 nM	2700 ± 530 nM	1700 ± 390 nM	5100 ± 530 nM	4200 ± 1600 nM	14000 ± 2800 nM	5200 ± 1100 nM	7300 ± 430 nM	4900 ± 1200 nM	17000 ± 860 nM	IC50 ([2]; 72 h): 2100 ± 400 nM; IC50 ([4]; PI-083 derivatives (Table 7, naphthoquinone library), purified rabbit 20S proteasome, read-out: IC50 (μM) Chymotrypsin-like activity): 1.2 ± 1 µM; IC50 ([4]; purified 20S rabbit proteasome, Table 4: means of 3 experiments ± standard error, read-out: IC50 for CT-L activity in vitro): 1 µM; IC50 ([9]; U266, 72 h): 7000 ± 1500 nM; IC50 ([14]; 72 h): 4200 ± 2100 nM; IC50 ([15]; primary MM cells, 48 h, Table 5: one value per patient, b176: mean over patients, read-out: Viability 48 h (IC50 values)): 1790 nM and 2600 nM and 3600 nM and 900 nM and 1500 nM; IC50 [15, 19]: > 10000 nM and 2200 nM and 3400 nM and 1800 nM and 2000 nM; IC50 ([15]; read-out: Viability 72 h (IC50 values), primary MM cells, 72 h, Table 5: one value per patient, b176: mean over patients): 1600 nM and 2200 nM and 2600 nM and 1300 nM and 1800 nM and 350 nM; tumor growth inhibition, A549 xenografts [16]: 54%; average tumor size of A549-derived xenografts [16]: about 511±134 mm^3; inhibition at 1 mg/kg [17]: 43%
